US11186588B2 (AYUMI PHARMACEUTICAL CORPORATION, priority 2017, dated 2021)

Legend:
[1] = tested on: type II collagen-induced arthritis; test: Rat type II collagen-induced arthritis model evaluation test; format: in vivo, LEW/CrlCrlj rats; details: oral 6 mg/mL solution at 5 mL/kg once a day from Day 12, hind limb volume on Day 21, rats
Experimental: In order to evaluate the inhibitory action for autoimmune and inflammatory diseases of the present compounds, the evaluation of Rat type II collagen-induced arthritis model was carried out. The specific method is described below.
0.05 mol/L acetic acid was added to bovine type II collagen (Collagen Research Center, Cat No. K42) so that it became 2 mg/mL on the day before primary sensitization and secondary sensitization, and the mixture was allowed to stand overnight in a refrigerator to dissolve the material. Immediately before sensitization, it was mixed with an equal amount of Freund's incomplete adjuvant (available from Difco, Cat No. 263910) to prepare an emulsion for sensitization.
An appropriate amount of each compound was weighed, triturated with an agate mortar, and suspended or dissolved in 1% methyl cellulose solution to prepare 6 mg/mL solution.
LEW/CrlCrlj rats (female, purchased from Charles River Laboratories Japan, Inc.) were weighted on the day of primary sensitization (Day 0) and primary grouped to an arthritis non-induced group and an arthritis induced group based on the measured body weight using a random number. The rats (other than the arthritis non-induced group) were thereafter administrated the emulsion for sensitization ([…]) into the skin of the dorsum (divided into 5 portions) under general anesthesia with isoflurane inhalation (available from Mylan Seiyaku Ltd.). Seven days after the primary sensitization (Day 7), the rats (other than the arthritis non-induced group) were manually held in hands and administered the emulsion for sensitization (100 μL) into the skin of the tail. On Day 12, the rats developing arthritis were selected, a random number was used to avoid difference in an average hind limb volume between the groups, and the arthritis induced group was secondary grouped to a control group and each compound-administered group, wherein each group contained 8 samples. The rats were forced orally administered 1% methyl cellulose solution (arthritis non-induced group and control group) or each administration solution comprising the compound (each compound-administered group) at a dose of 5 mL/kg into stomach using a feeding needle once a day from Day 12. The volume of both hind limbs of each rat was measured using a plethysmometer (from Unicom) on Day 0, 4, 7, 12, 14, 18 and 21.
(Calculation of Limb Edema Suppression Rate) The limb edema suppression rate (%) was calculated by the following equation using Microsoft EXCEL 2010. Limb edema suppression rate (%)=100−{(average value of hind limb volume of each compound-administered group on Day 21)−(average value of hind limb volume of arthritis non-induced group on Day 21))/(average value of hind limb volume of control group on Day 21)−(average value of hind limb volume of arthritis non-induced group on Day 21)}×100

[2] = Pharmacokinetics test in rats (oral administration); format: in vivo, LEW/CrlCrlj rats
Experimental: In order to evaluate the transition of plasma concentration of the present compound after oral administration, pharmacokinetics was evaluated in rats. The specific method is described below.
Appropriate amounts of Example 71 and various salts thereof were weighed, triturated with an agate mortar, and suspended or dissolved in 1% methyl cellulose solution to 2 mg/mL (as a converted quantity of Example 71 considering the correction of purify).
LEW/CrlCrlj rats (male, purchased form Charles River Laboratories Japan, Inc.) were weighted, a random number based on the measured body weight was used to avoid difference in average body weight among groups, and the rats were divided into groups, wherein each groups contained 4 rats. The rats were manually held in hands and forced orally administered each administration solution comprising the compound at a dose of 5 mL/kg into stomach using a feeding needle. At 0.5, 1, 3, 6 and 24 hours after the administration of each administration solution comprising the compound, the rats were manually held in hands, and blood was collected from the jugular vein or subclavian vein using a heparin-treated injection syringe. The obtained blood was centrifuged at 1,500 G for 10 minutes, and plasma was collected as an actual sample. In addition, plasma was collected from rats before the administration of the compound in the same manner, which was used as blank plasma. The collected actual samples and blank plasma were stored in a freezer set at −70° C. until the measurement of the compound concentration. To 20 μL of each actual sample were added 20 μL of acetonitrile (available from Kishida Chemical Co., Ltd., Cat No. 140-00401), 100 μL of MilliQ water and 20 μL of the internal standard solution to prepare an analytical sample. In addition, to 20 μL of blank plasma were added 20 μL or 40 μL of acetonitrile (available from Kishida Chemical Co., Ltd., Cat No. 140-00401) and 100 μL of MilliQ water (a blank sample or a zero sample, respectively). A standard sample for a calibration curve was prepared by mixing 20 μL of blank plasma, 20 μL of the standard solution for a calibration curve in each concentration, 100 μL of MilliQ water and 20 μL of the internal standard solution. Whole amount of the prepared each sample was applied to a diatomaceous earth column for liquid-liquid extraction (available from Biotage, Cat No. 820-0200), tert-butyl methyl ether (available from Kanto Chemical Co., Inc., Cat No. 04418-5B) was added and eluted by natural dropping, and the obtained eluate was concentrated to dryness under a nitrogen stream. The residue was dissolved in the re-dissolved solution and 10 μL of each sample was injected into the LC/MS/MS apparatus.
LC/MS/MS analysis was carried out under the following conditions. Analytical column: Hydrosphere C18, 3 μm, 2.0 mm I.D.×50 mm (from YMC, Cat No. HS12S03-0502WT)
Flow rate: 0.3 mL/min. Column temperature: 50° C. Peak area calculation, peak area ratio calculation, preparation of calibration and quantification used in calculating the concentration for the LC/MS/MS analysis were carried out by Analyst ver.1.6.2 (available from AB Sciex). In addition, by using the obtained concentration measurement results, these were analyzed by Non-compartmental model of a pharmacokinetics analysis program WinNonlin ver.6.1 (Pharsight Corporation), and the pharmacokinetics parameter was calculated.

[3] = male, LEW/CrlCrlj, rat, plasma, 10 mg/kg, oral 2 mg/mL solution at 5 mL/kg, mean n = 4

## Cc1sc2c(c1C)C(c1ccc(Cl)cc1)=NN(Cc1cccnc1Cl)c1nnc(C)n1-2 [Example 38, 4-(4-chlorophenyl)-6-((2-chloropyridin-3-yl)methyl)-2,3,9-trimethyl-6H-thieno[2,3-e][1,2,4]triazolo[3,4-c][1,2,4]triazepine]
[1]
  Limb edema suppression rate(%): 11.9%

## Cc1sc2c(c1C)C(c1ccccc1)=NN(Cc1ccccn1)c1nnc(C)n1-2 [Example 31, 2,3,9-trimethyl-4-phenyl-6-(pyridin-2-ylmethyl)-6H-thieno[2,3-e][1,2,4]triazolo[3,4-c][1,2,4]triazepine]
[1]
  Limb edema suppression rate(%): 68.9%

## Cc1sc2c(c1C)C(c1ccc(Cl)cc1)=NN(Cc1ccccn1)c1nnc(C)n1-2 [Example 5, 4-(4-chlorophenyl)-2,3,9-trimethyl-6-(pyridin-2-ylmethyl)-6H-thieno[2,3-e][1,2,4]triazolo[3,4-c][1,2,4]triazepine]
[1]
  Limb edema suppression rate(%): 92.9%

## Cc1sc2c(c1C)C(c1ccc(Cl)cc1)=NN(Cc1cccnc1F)c1nnc(C)n1-2 [Example 25, 4-(4-chlorophenyl)-6-((2-fluoropyridin-3-yl)methyl)-2,3,9-trimethyl-6H-thieno[2,3-e][1,2,4]triazolo[3,4-c][1,2,4]triazepine]
[1]
  Limb edema suppression rate(%): 39.8%

## CC(=O)Nc1ccc(C2=NN(Cc3cccnc3)c3nnc(C)n3-c3sc(C)c(C)c32)cc1 [Example 71, N-(4-(2,3,9-trimethyl-6-(pyridin-3-ylmethyl)-6H-thieno[2,3-e][1,2,4]triazolo[3,4-c][1,2,4]triazepin-4-yl)phenyl)acetamide]
[2]; male, LEW/CrlCrlj, rat, 10 mg/kg, plasma, 0.5 h after oral 2 mg/mL solution at 5 mL/kg, mean n = 4, read-out: Concentration (ng/mL), sampling time 0.5 h
  concentration at 0.5 h: 22.1 ng/mL
[2]; male, LEW/CrlCrlj, rat, 10 mg/kg, plasma, 1 h after oral 2 mg/mL solution at 5 mL/kg, mean n = 4, read-out: Concentration (ng/mL), sampling time 1 h
  concentration at 1 h: 14.8 ng/mL
[2]; male, LEW/CrlCrlj, rat, 10 mg/kg, plasma, 3 h after oral 2 mg/mL solution at 5 mL/kg, mean n = 4, read-out: Concentration (ng/mL), sampling time 3 h
  concentration at 3 h: 4.23 ng/mL
[2]; male, LEW/CrlCrlj, rat, 10 mg/kg, plasma, 6 h after oral 2 mg/mL solution at 5 mL/kg, mean n = 4, read-out: Concentration (ng/mL), sampling time 6 h
  concentration at 6 h: 1.46 ng/mL
[2]; [3]
  AUC(0-inf): 61.8 ng·h/mL
  AUC(0-t): 42.3 ng·h/mL
  half-life: 1.31 h
[2]; male, LEW/CrlCrlj, rat, plasma, 10 mg/kg, oral 2 mg/mL solution at 5 mL/kg, mean n = 4, read-out: Cmax
  Cmax: 22.4 ng/mL
[2]; male, LEW/CrlCrlj, rat, plasma, 10 mg/kg, oral 2 mg/mL solution at 5 mL/kg, mean n = 4, read-out: MRT
  MRT: 1.82 h
[2]; male, LEW/CrlCrlj, rat, plasma, 10 mg/kg, oral 2 mg/mL solution at 5 mL/kg, mean n = 4, read-out: Tmax
  Tmax: 0.75 h
[2]; oral 2 mg/mL solution at 5 mL/kg, mean n = 4
  Kel: 0.55 h⁻¹
[1]
  Limb edema suppression rate(%): 93.8%
